# Laboratory results from paper PMC11729425 (ACS Pharmacology & Translational Science, 2024).
# Columns and labels:
# [1] = set-up: method as in PMID 29669694; details: cited from earlier work
# [2] = test system: sphingolipids in gastrocnemius muscle and brain; assay: Sphingolipid and deoxysphingolipid analysis in gastrocnemius muscle and brain of aged mice (20 weeks); type: in vivo, C57BL/6JRj mice; details: 1 mg/kg in the food
# Protocol: Figure 4 1-deoxy-SL species accumulate in muscle and brain tissues during aging and contribute to cellular protein aggregation. (A,B) Heat map representing the abundance of sphingolipids in (A) gastrocnemius muscle and (B) brain with and without treatment with ALT-007 in mice (ALT-007 at 1 mg/kg; DMSO at equivalent volume for 20 weeks). N = 8 per group. Data are shown as log2 fold change. Adjusted P values are indicated as follows: *adjusted P < 0.05; **adjusted P < 0.01; ***adjusted P < 0.001. (C,D) Representative images and quantification of protein aggregates upon 1-deoxy-SA (C) and P053 treatment (D) in human primary IBM cells; both were administered at 4 μM for 24 h. N = 8 per group. (E) Analysis of 1-Deoxy-Spa and 1-DeoxyCer 24:1 levels in myoblasts from healthy and IBM patients. N = 3 per group. (C–E) Quantitative data are expressed as median with IQR and compared using the Mann–Whitney U test. All tests were 2 sided. *P < 0.05, **P < 0.01, ***P < 0.001.
# Sphingolipid and deoxysphingolipid measurements were performed by liquid chromatography–tandem mass spectrometry (LC–MS/MS) analysis as described in previous studies.[12],[13],[28]−[30] […]
# (§1) ESI source conditions were used as follows: dry gas temperature, 230 °C; nebulizer, 35 psi and flow rate of 14 L min^–1; sheath gas temperature, 400 °C and flow rate of 12 L min^–1; nozzle voltage, 500 V; and capillary voltage, 4000 V. Dynamic multiple reaction monitoring was used as the acquisition mode with a total cycle time of 500 ms. […] Raw LC–MS/MS data were processed applying Agilent Quantitative Analysis software (version B.07.00, MassHunter Agilent Technologies).
# Absolute quantification was based on calibration curves and stable isotope-labeled internal standards to determine the response factor for each metabolite, with linearity assessed using 12-point range standard curves. […] Sphingolipid concentrations were reported and protein concentrations in protein pellets (measured by BCA, Thermo Fisher Scientific) were determined after metabolite extraction. […]
# [3] = set-up: method as in PMID 29669694; details: compared to Myriocin; cited from earlier work
# [4] = test system: immortalized mouse C2C12 myoblasts; assay: Lipid species (ceramides) in C2C12 cells, LC-MS/MS; type: cell-based
# Protocol: (A) Schematic representation of the de novo sphingolipid synthesis pathway. (B) Chemical structures of myriocin (MYR) and ALT-007. (C) Heatmap analysis comparing the effects of treatments with the indicated concentrations of MYR and ALT-007 on lipid species in C2C12 cells. N = 3 per group. Data are shown as log2 fold change. (D) Body weight curves of mice treated with ALT-007 or vehicle (4 mg/kg/d for 10 days, in the food). (E) Mean food consumption measurement throughout the treatment. (F) Plasma levels of aspartate transaminase (AST), (G) alanine transaminase (ALT) and (H) creatine kinase (CK) after 10 days of treatment with ALT-007 at 4 mg/kg/day. (I) Ceramide levels measured in the gastrocnemius muscle after 10 days of treatment. N = 8 per group. Quantitative data are expressed as median with min to max values. *P < 0.05, **P < 0.01, ***P < 0.001. […]
# as §1, with “Technologies). […]” for “Technologies).”
# [5] = set-up: method as in PMID 29669694; details: compared to Myriocin; cited from earlier work; remark: listed apart in the source
# [6] = test system: Aged C57BL/6J mice; assay: Lean mass (echoMRI) and muscle weight at sacrifice in aged mice; type: in vivo, C57BL/6JRj mice; details: 1 mg/kg in the food
# Protocol: At the first and last (week 20) after experiment onset (as indicated in Figure 2A), body composition analysis was conducted. Each mouse was placed for short in an Echo-MRI (magnetic resonance imaging) machine, specifically the 3-in-1 model from Echo Medical Systems. This procedure recorded lean mass, along with total body weight, with each measurement taking approximately 1 min per individual.
# Prior to sacrifice, mice were fasted for 4 h in the morning. Animals were sacrificed between 1:30 and 4 p.m. Mice were anesthetized with isoflurane, followed by a complete blood draw from the vena cava and perfusion with cold phosphate-buffered saline. Immediately thereafter, various tissues including liver, kidney, spleen, heart, brain, gastrocnemius muscle and tibialis anterior muscle were harvested, weighted and promptly flash-frozen in liquid nitrogen.
compound,measurement,setting,value
COc1cc(C(=O)N2CC[C@H](NC(=O)c3ccccc3OC(F)(F)F)c3c2cnn3C(C)C)cnc1OC [ALT-007],oral bioavailability,[1],orally bioavailable
same,toxicity in long-term dosing,[1]; rodents,non-toxic in long-term dosing in rodents
same,1-deoxy-SLs in the brain,[2],attenuated the age-related increase in 1-deoxy-SLs
same,total ceramides in the gastrocnemius,[2],lower levels of total ceramides
same,"very long chain 1-deoxy-SLs (1-deoxyCer 22, 1-deoxyCer 24:1, N-C24:1-deoxysphinganine) in the gastrocnemius muscle",[2],attenuated
same,aqueous solubility,[3],improved
same,potency in lowering ceramide species,"[4]; C2C12 myoblasts, compared to Myriocin",superior potency compared to Myriocin
same,ceramide levels in C2C12 myoblasts,[4]; concentration of 10 nM,lower ceramide levels
same,permeability,[5],improved
same,lean mass measured by echoMRI,[6]; after 11 weeks,increased lean mass
same,"muscle weight (gastrocnemius, tibialis anterior)",[6]; at sacrifice after 20 weeks,increased muscle weight
